Assays:
HMEC-1 endothelial cells = assay: Microvessel formation inhibition assay on Matrigel; type: cell-based, human; settings: HMEC-1 on Matrigel
Protocol: The antiangiogenic action of the selected compounds, as well as the reference compounds, was evaluated by determining the effect on the formation of new microvessels formed by HMEC-1 endothelial cells on a Matrigel matrix.
We used IBIDI μ-slide angiogenesis plates (IBIDI, Martins ried, Germany). The wells were coated with 15 μL of Matrigel® (10 mg/mL, BD Biosciences, San Jose, CA, USA) at 4 °C and incubated at 37 °C for at least 30 min. Afterward, the HMEC-1 cells were seeded at 2 × 10^4 cells/well in 25 μL of medium and were left for 30 min at 37 °C while they attached. Then, the compounds were added in serial doses in 25 μL of the medium, and after several hours (maximum 24 h) of incubation at 37 °C, pictures for the wells were taken to evaluate the formation of microvessels.

VEGFR-2 = biological target: T1, VEGFR-2 (Homo sapiens, UniProt P35968); assay: VEGFR-2 relative quantification by flow cytometry in HT-29 cells; type: cell-based; settings: for total VEGFR-2 (%) expression: HT-29 cells, 24 h, relative to DMSO control = 100
T1 construct: assess the effect of our new ureas on these two proteins only on the HT-29 cancer cell line through the use of flow cytometry; endogenous in cells; host or cells: HT-29
T1 sequence (P35968 20-1356): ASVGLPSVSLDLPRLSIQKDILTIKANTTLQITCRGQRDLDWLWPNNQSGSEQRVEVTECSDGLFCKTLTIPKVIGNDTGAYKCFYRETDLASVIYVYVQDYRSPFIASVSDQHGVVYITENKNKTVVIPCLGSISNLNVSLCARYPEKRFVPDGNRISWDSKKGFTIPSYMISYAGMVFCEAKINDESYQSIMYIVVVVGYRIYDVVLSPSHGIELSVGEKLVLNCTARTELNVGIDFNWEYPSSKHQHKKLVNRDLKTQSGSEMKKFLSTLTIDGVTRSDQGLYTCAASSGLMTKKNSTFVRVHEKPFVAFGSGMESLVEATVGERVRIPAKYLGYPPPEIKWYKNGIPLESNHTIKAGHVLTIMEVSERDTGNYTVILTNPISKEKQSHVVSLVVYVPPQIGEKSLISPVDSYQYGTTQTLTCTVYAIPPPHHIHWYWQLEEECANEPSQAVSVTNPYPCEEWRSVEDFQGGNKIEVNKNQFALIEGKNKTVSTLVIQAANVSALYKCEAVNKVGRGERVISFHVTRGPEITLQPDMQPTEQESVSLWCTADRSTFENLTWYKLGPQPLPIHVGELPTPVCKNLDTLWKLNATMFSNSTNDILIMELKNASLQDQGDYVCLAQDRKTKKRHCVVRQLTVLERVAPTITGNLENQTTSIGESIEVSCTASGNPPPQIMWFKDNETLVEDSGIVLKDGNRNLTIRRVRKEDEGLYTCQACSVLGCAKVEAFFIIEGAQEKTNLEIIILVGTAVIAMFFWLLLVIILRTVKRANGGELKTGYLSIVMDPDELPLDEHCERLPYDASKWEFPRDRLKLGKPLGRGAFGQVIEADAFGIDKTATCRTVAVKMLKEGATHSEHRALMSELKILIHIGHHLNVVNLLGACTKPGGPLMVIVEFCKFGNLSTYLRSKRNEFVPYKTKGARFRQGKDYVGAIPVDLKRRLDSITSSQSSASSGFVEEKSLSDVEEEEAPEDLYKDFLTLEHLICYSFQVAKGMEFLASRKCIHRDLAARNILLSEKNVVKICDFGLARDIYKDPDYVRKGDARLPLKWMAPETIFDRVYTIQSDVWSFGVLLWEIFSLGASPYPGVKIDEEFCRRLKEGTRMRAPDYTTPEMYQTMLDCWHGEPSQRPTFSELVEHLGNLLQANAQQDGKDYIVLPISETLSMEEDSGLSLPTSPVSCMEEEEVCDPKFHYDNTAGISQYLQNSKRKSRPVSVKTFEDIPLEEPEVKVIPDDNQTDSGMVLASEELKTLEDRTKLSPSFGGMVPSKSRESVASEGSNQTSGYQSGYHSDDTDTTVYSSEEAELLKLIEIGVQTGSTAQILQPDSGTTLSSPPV
Protocol: The cells were incubated for a period of time of one day with doses of each of the selected compounds at two different doses: 20 and 100 µM concentrations.
The effects of the compounds on the target in the cancer cell lines compounds were tested using 20 and 100 µM doses. For that, 10^5 cells per well were seeded on a 12-well plate for 24 h with the corresponding dose of the tested compound in a total volume of 500 μL of cell media. To determine the total PD-L1 and VEGFR-2, the cells were collected and fixed with 4% in a PBS of formaldehyde. After this, a treatment with 0.5% in PBS Triton^TM X-100 permeabilized the membranes.
To determine surface PD-L1 and VEGFR-2, the assay used was similar to the above but avoided the permeabilization step (Triton^TM X-100).

Row | Compound | Minimum Active Conc. inhibiting microtube formation (HMEC-1 endothelial cells) | total VEGFR-2 (%) expression (VEGFR-2; 20 μM) | total VEGFR-2 (%) expression (VEGFR-2; 100 μM) | inhibition rate of VEGFR-2 (VEGFR-2; HT-29, total VEGFR-2, dose not stated)
1 | COc1ccc(CCCc2cccc(NC(=O)Oc3ccccc3)c2)cc1 [C.1] | 5 µM | 51 ± 10% | 191 ± 87% | 
2 | COc1ccc(CCCc2cccc(NC(=O)Nc3ccc(F)cc3)c2)cc1 [C.3] | 50 µM | 38 ± 7% | 40 ± 7% | 
3 | COc1ccc(CCCc2cccc(NC(=O)Nc3ccc(OC)cc3)c2)cc1 [C.12] | 20 µM | 30 ± 10% | 65 ± 45% | around 75%
4 | COc1ccc(CCCc2cccc(NC(=O)Nc3ccccc3OC)c2)cc1 [C.14] | >100 µM | 228 ± 66% | 32 ± 9% | 

Source: PMC10302582, “Unveiling the Potential of BenzylethyleneAryl–Urea Scaffolds for the Design of New Onco Immunomodulating Agents” (Pharmaceuticals, 2023)
